The Ki is the dissociation constant of the complex between target and ligand, obtained from inhibition or displacement.

The test addresses T1, TAAR1 (Mus musculus, UniProt Q923Y8).
T1 construct: expressed in transfected cells; host or cells: HEK293 cells (ATCC #CRL-1573), stably transfected with pIRESneo2 expression plasmid; membrane preparation
The test is described as follows: Radioligand binding assay on membranes of HEK293 cells stably expressing TAAR1. To be noted: radioligand [3H]-rac-2-(1,2,3,4-tetrahydro-1-naphthyl)-2-imidazoline 60 nM, 4° C., 30 min. How it is done:
The Expand High Fidelity PCR System (Roche Diagnostics) was used with 1.5 mM Mg^2+ and purified PCR products were cloned into pCR2.1-TOPO cloning vector (Invitrogen) following the instructions of the manufacturer. PCR products were subcloned into the pIRESneo2 vector (BD Clontech, Palo Alto, Calif.), and expression vectors were sequence verified before introduction in cell lines.
For the generation of stably transfected cell lines HEK293 cells were transfected with the pIRESneo2 expression plasmids containing the TAAR coding sequences (described above) with Lipofectamine 2000 (Invitrogen) according to the instructions of the manufacturer, and 24 hrs post transfection the culture medium was supplemented with 1 mg/ml G418 (Sigma, Buchs, Switzerland). After a culture period of about 10 d clones were isolated, expanded and tested for responsiveness to trace amines (all compounds purchased from Sigma) with the cAMP Biotrak Enzyme immunoassay (EIA) System (Amersham) following the non-acetylation EIA procedure provided by the manufacturer.
Cells at confluence were rinsed with ice-cold phosphate buffered saline without Ca^2+ and Mg^2+ containing 10 mM EDTA and pelleted by centrifugation at 1000 rpm for 5 min at 4° C. The pellet was then washed twice with ice-cold phosphate buffered saline and cell pellet was frozen immediately by immersion in liquid nitrogen and stored until use at −80° C. Cell pellet was then suspended in 20 ml HEPES-NaOH (20 mM), pH 7.4 containing 10 mM EDTA, and homogenized with a Polytron (PT 3000, Kinematica) at 10,000 rpm for 10 s. The homogenate was centrifuged at 48,000×g for 30 min at 4° C. and the pellet resuspended in 20 ml HEPES-NaOH (20 mM), pH 7.4 containing 0.1 mM EDTA (buffer A), and homogenized with a Polytron at 10,000 rpm for 10 s. The homogenate was then centrifuged at 48,000×g for 30 min at 4° C. and the pellet resuspended in 20 ml buffer A, and homogenized with a Polytron at 10,000 rpm for 10 s. Protein concentration was determined by the method of Pierce (Rockford, Ill.). […] Non-specific binding was defined as the amount of [^3H]-rac-2-(1,2,3,4-tetrahydro-1-naphthyl)-2-imidazoline bound in the presence of the appropriate unlabelled ligand (10 μM). Competing ligands were tested in a wide range of concentrations (10 pM-30 μM). […] Each experiment was performed in duplicate. All incubations were terminated by rapid filtration through UniFilter-96 plates (Packard Instrument Company) and glass filter GF/C, pre-soaked for at least 2 h in polyethylenimine 0.3%, and using a Filtermate 96 Cell Harvester (Packard Instrument Company). The tubes and filters were then washed 3 times with 1 ml aliquots of cold buffer B. Filters were not dried and soaked in Ultima gold (45 μl/well, Packard Instrument Company) and bound radioactivity was counted by a TopCount Microplate Scintillation Counter (Packard Instrument Company).

Where [1] appears, read: read-out: Ki value (μM) in mouse.

Like-named read-outs stand apart in the source and are kept apart here.

T1 sequence (Q923Y8 whole entry): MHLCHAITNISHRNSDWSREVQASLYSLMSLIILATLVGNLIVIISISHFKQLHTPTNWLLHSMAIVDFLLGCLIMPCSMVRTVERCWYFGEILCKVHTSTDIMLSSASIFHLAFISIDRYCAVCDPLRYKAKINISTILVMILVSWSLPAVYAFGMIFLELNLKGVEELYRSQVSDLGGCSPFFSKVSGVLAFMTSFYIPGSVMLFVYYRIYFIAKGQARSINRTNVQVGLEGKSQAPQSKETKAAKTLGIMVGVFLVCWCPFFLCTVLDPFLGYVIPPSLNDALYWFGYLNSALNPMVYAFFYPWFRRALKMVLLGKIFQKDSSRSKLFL

Consider `COc1cccc(NC(=O)c2ccc(F)c(C(F)(F)F)c2)c1` [Example 73, 4-Fluoro-N-(3-methoxy-phenyl)-3-trifluoromethyl-benzamide], for which, under setting [1], the Ki stood at 0.03 µM.

As to `CCCCNc1ccc(C(=O)Nc2cccc(OC)c2)cc1C(F)(F)F` [Example 145, 4-Butylamino-N-(3-methoxy-phenyl)-3-trifluoromethyl-benzamide], the affinity (Ki value (μM) in mouse), expressed as Ki, was 0.01 µM.

Regarding `O=C(Nc1cccc(Cl)c1)c1cnc(N2CCC2)c(Cl)c1` [Example 162, 6-Azetidin-1-yl-5-chloro-N-(3-chloro-phenyl)-nicotinamide], affinity (Ki value (μM) in mouse) was put at a Ki of 0.042 µM.

Consider `Cc1cccc(NC(=O)c2ccc(N3CCCC3)c(C(F)(F)F)c2)c1` [Example 189, 4-Pyrrolidin-1-yl-N-m-tolyl-3-trifluoro-methyl-benzamide], for which, under setting [1], the Ki came out at 0.016 µM. Take `COc1cccc(NC(=O)c2ccc(Nc3ccccc3)c([N+](=O)[O-])c2)c1` [Example 97, N-(3-Methoxy-phenyl)-3-nitro-4-phenylamino-benzamide]: the Ki under setting [1] is 0.029 µM. On to `COCCNc1ncc(C(=O)Nc2cccc(Cl)c2)cc1Cl` [Example 153, 5-Chloro-N-(3-chloro-phenyl)-6-(2-methoxy-ethylamino)-nicotinamide], for which the Ki under setting [1] was found to be 0.035 µM.

`COc1cccc(NC(=O)c2cnc(NCc3ccccc3)c(C(F)(F)F)c2)c1` [Example 199] showed a Ki (Ki value (μM) in mouse) of 0.0056 µM. On to `COc1cccc(NC(=O)c2ccc(N3CCC3)c(C(F)(F)F)c2)c1` [Example 140, 4-Azetidin-1-yl-N-(3-methoxy-phenyl)-3-trifluoromethyl-benzamide], for which the Ki under setting [1] came out at 0.016 µM. The same measure, in the same setting: under `COc1cccc(NC(=O)c2ccc(N3CCCCC3)c(C(F)(F)F)c2)c1` [Example 141, N-(3-Methoxy-phenyl)-4-piperidin-1-yl-3-trifluoromethyl-benzamide] stands 0.038 µM. Consider `CCCCNc1ncc(C(=O)Nc2cccc(Cl)c2)cc1Cl` [Example 158, 6-Butylamino-5-chloro-N-(3-chloro-phenyl)-nicotinamide], for which, for the setting “Ki value (μM) in mouse”, the Ki came out at 0.008 µM.

As for `O=C(Nc1cccc(Cl)c1)c1cnc(N2CCNCC2)c(Cl)c1` [Example 210, 5-Chloro-N-(3-chloro-phenyl)-6-piperazin-1-yl-nicotinamide], under setting [1], the Ki was 0.0348 µM. Same read-out and setting: under `COc1cccc(NC(=O)c2cnc(Cl)c(C(F)(F)F)c2)c1` [Example 178, 6-Chloro-N-(3-methoxy-phenyl)-5-trifluoromethyl-nicotinamide] stands 0.008 µM; under `COc1cccc(NC(=O)c2ccc(N3CCC3)c([N+](=O)[O-])c2)c1` [Example 92, 4-Azetidin-1-yl-N-(3-methoxy-phenyl)-3-nitro-benzamide], 0.029 µM.

On to `CCNc1ccc(C(=O)Nc2cccc(OC)c2)cc1[N+](=O)[O-]` [Example 90, 4-Ethylamino-N-(3-methoxy-phenyl)-3-nitro-benzamide], for which the inhibition constant (Ki) under setting [1] turned out to be 0.024 µM. Same read-out and setting: under `O=C(Nc1ccccc1)c1ccc([N+](=O)[O-])c(C(F)(F)F)c1` [Example 324, 4-Nitro-N-phenyl-3-trifluoromethyl-benzamide] stands 0.0674 µM. For `COc1cccc(NC(=O)c2ccc(F)c(S(=O)(=O)N3CC(C)CC(C)C3)c2)c1` (racemic) [Example 167, (rac,meso)-3-(3,5-Dimethyl-piperidine-1-sulfonyl)-4-fluoro-N-(3-methoxy-phenyl)-benzamide], the Ki under setting [1] was found to be 0.004 µM. Same read-out and setting: under `CC(C)Nc1ncc(C(=O)Nc2cccc(Cl)c2)cc1Cl` [Example 152, 5-Chloro-N-(3-chloro-phenyl)-6-isopropylamino-nicotinamide] stands 0.027 µM.

For the compound `O=C(Nc1cccc(Cl)c1)c1cnc(Cl)c(Cl)c1` [Example 47, 5,6-Dichloro-N-(3-chloro-phenyl)-nicotinamide], under setting [1], the Ki is 0.079 µM.

For `CCCNc1ccc(C(=O)Nc2cccc(OC)c2)cc1C(F)(F)F` [Example 144, N-(3-Methoxy-phenyl)-4-propylamino-3-trifluoromethyl-benzamide], the Ki under setting [1] was 0.032 µM. With `CCCNc1ncc(C(=O)Nc2cccc(Cl)c2)cc1Cl` [Example 157, 5-Chloro-N-(3-chloro-phenyl)-6-propylamino-nicotinamide], for the setting “Ki value (μM) in mouse”, affinity was put at a Ki of 0.011 µM. For `O=C(Nc1ccccc1)c1ccc(Cl)c(Cl)c1` [Example 319, 3,4-Dichloro-N-phenyl-benzamide], the Ki under setting [1] worked out at 0.0543 µM. As to `CC1CCN(c2ncc(C(=O)Nc3cccc(Cl)c3)cc2Cl)CC1` [Example 155, 3′-Chloro-4-methyl-3,4,5,6-tetrahydro-2H-[1,2′]bipyridinyl-5′-carboxylicacid (3-chloro-phenyl)-amide], under “Ki value (μM) in mouse”, the Ki was 0.023 µM. Same read-out and setting: under `COc1cccc(NC(=O)c2cnc(N3CCCCC3)c(Cl)c2)c1` [Example 206] stands 0.0207 µM.

Take `COc1cccc(NC(=O)c2cnc(N3CCC(C)CC3)c(Cl)c2)c1` [Example 207]: under setting [1], the Ki is 0.0098 µM. Turning to `COc1cccc(NC(=O)c2cnc(NC(C)C)c(C(F)(F)F)c2)c1` [Example 200], the affinity (Ki value (μM) in mouse), expressed as Ki, was 0.0597 µM.

`COc1cccc(NC(=O)c2ccc(N3CCC(C#N)CC3)c(C(F)(F)F)c2)c1` [Example 196, 4-(4-Cyano-piperidin-1-yl)-N-(3-methoxy-phenyl)-3-trifluoromethyl-benzamide]: the Ki under setting [1] was determined as 0.022 µM.

In the case of `CCc1cccc(NC(=O)c2ccc(N3CCCC3)c(C(F)(F)F)c2)c1` [Example 180, N-(3-Ethyl-phenyl)-4-pyrrolidin-1-yl-3-trifluoromethyl-benzamide], the Ki under setting [1] is 0.021 µM.

For `O=C(Nc1cccc(Cl)c1)c1cnc(N2CCCC2)c(Cl)c1` [Example 154, 5-Chloro-N-(3-chloro-phenyl)-6-pyrrolidin-1-yl-nicotinamide], the Ki under setting [1] is 0.014 µM.

For the compound `O=C(Nc1cccc(Cl)c1)c1cnc(N2CCCCC2)c(Cl)c1` [Example 163, 3′-Chloro-3,4,5,6-tetrahydro-2H-[1,2′]bipyridinyl-5′-carboxylicacid (3-chloro-phenyl)-amide], under setting [1], the Ki was 0.038 µM. The same measure, in the same setting: under `CC(C)Oc1cccc(NC(=O)c2ccc(N3CCCC3)c(C(F)(F)F)c2)c1` [Example 183, N-(3-Isopropoxy-phenyl)-4-pyrrolidin-1-yl-3-trifluoro-methyl-benzamide] stands 0.007 µM; under `COc1cccc(NC(=O)c2ccc(Br)c([N+](=O)[O-])c2)c1` [Example 42, 4-Bromo-N-(3-methoxy-phenyl)-3-nitro-benzamide], 0.021 µM.

As to `COc1cccc(NC(=O)c2ccc(N3CCOCC3)c(C(F)(F)F)c2)c1` [Example 150, N-(3-Methoxy-phenyl)-4-morpholin-4-yl-3-trifluoromethyl-benzamide], under “Ki value (μM) in mouse”, the Ki is 0.086 µM. Same read-out and setting: under `CC(C)c1cccc(NC(=O)c2ccc(N3CCCC3)c(C(F)(F)F)c2)c1` [Example 182, N-(3-Isopropyl-phenyl)-4-pyrrolidin-1-yl-3-trifluoro-methyl-benzamide] stands 0.065 µM. In the case of `COc1cccc(NC(=O)c2ccc(N3CCC(C)CC3)c([N+](=O)[O-])c2)c1` [Example 27, N-(3-Methoxy-phenyl)-4-(4-methyl-piperidin-1-yl)-3-nitro-benzamide], the Ki under setting [1] came to 0.002 µM.

As for `Cc1cnc(C)n1Cc1cccc(NC(=O)c2ccc(Cl)c(Cl)c2)c1` [Example 177, 3,4-Dichloro-N-[3-(2,5-dimethyl-imidazol-1-ylmethyl)-phenyl]-benzamide], the Ki under setting [1] is 0.049 µM. On the same count and under the same terms, under `Cc1cccc(C(=O)Nc2ccc(Cl)c(Cl)c2)c1` [Example 220, N-(3,4-Dichloro-phenyl)-3-methyl-benzamide] stands 0.068 µM; under `COc1cccc(NC(=O)c2ccc(NC(C)C)c(C(F)(F)F)c2)c1` [Example 149, 4-Isopropylamino-N-(3-methoxy-phenyl)-3-trifluoromethyl-benzamide], 0.022 µM; under `O=C(Nc1cccc(OC(F)F)c1)c1ccc(N2CCCC2)c(C(F)(F)F)c1` [Example 190, N-(3-Difluoro-methoxy-phenyl)-4-pyrrolidin-1-yl-3-trifluoro-methyl-benzamide], 0.012 µM.

The record behind these values is patent US20090036420A1, “BENZAMIDE DERIVATIVES AND THEIR USE FOR TREATING CNS DISORDERS” (priority 2007, published 2009).
